Here are results for 1 compound from ChEMBL document CHEMBL1158972, “New cytotoxic beta-carboline alkaloids from the marine bryozoan, Cribricellina cribraria” (J Nat Prod, 1991).

The structures appear in SMILES notation.

One assay deals with Candida albicans. The assay can be described thus: Antimicrobial activity against Candida albicans at 30 ug. The format is functional. The settings on record: read-out: IZ.
The next assay deals with Bacillus subtilis. Description: Antimicrobial activity against Bacillus subtilis at 30 ug. The settings on record: read-out: IZ. In kind it is functional.

As for `O=C(N[C@H](CO)[C@H](O)c1ccc([N+](=O)[O-])cc1)C(Cl)Cl` [CHLORAMPHENICOL], the zone of inhibition at 30 µg/disc was 8 mm in the assay on Candida albicans and 12 mm in the assay on Bacillus subtilis.
